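A five-concentration, 48-hour dose response in 96-well plates underlies each endpoint, interpolated linearly between surrounding concentrations. GI50 marks 50% less growth.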 The source made the active and inactive calls. Cut-off read from the data, not from the text of the source: active = GI50 up to about 1.1 µM and inactive = higher.
Key:
Experiment in all cases: inhibition of tumour cell growth, NCI panel, 48 h
ACHN = tested on: ACHN
CAKI-1 = tested on: CAKI-1
CCRF-CEM = tested on: CCRF-CEM
EKVX = tested on: EKVX
HCC 2998 = tested on: HCC 2998
HCT-15 = tested on: HCT-15
HOP-92 = tested on: HOP-92
Hs-578T = tested on: Hs-578T
IGROV-1 = tested on: IGROV-1
KM12 = tested on: KM12
NCI-H23 = tested on: NCI-H23
NCI-H522 = tested on: NCI-H522
PC-3 = tested on: PC-3
RPMI-8226 = tested on: RPMI-8226
SF-268 = tested on: SF-268
SK-MEL-28 = tested on: SK-MEL-28
SNB-75 = tested on: SNB-75
SW-620 = tested on: SW-620
UACC-257 = tested on: UACC-257
UACC-62 = tested on: UACC-62

Structure (SMILES)	GI50 (ACHN)	GI50 (CAKI-1)	GI50 (CCRF-CEM)	GI50 (EKVX)	GI50 (HCC 2998)	GI50 (HCT-15) [µM]	GI50 (HOP-92)	GI50 (Hs-578T)	GI50 (IGROV-1)	GI50 (KM12)	GI50 (NCI-H23)	GI50 (NCI-H522)	GI50 (PC-3)	GI50 (RPMI-8226)	GI50 (SF-268)	GI50 (SK-MEL-28)	GI50 (SNB-75)	GI50 (SW-620)	GI50 (UACC-257)	GI50 (UACC-62)
NC1N=C(c2ccc(Cl)cc2)C2=C(N1)c1ccccc1CC2 (stereo not given)	> 51.2 µM (inactive)	76.4 µM (inactive)	3.93 µM (inactive)	14.2 µM (inactive)	0.156 µM (active)	3.58	33.6 µM (inactive)	8.71 µM (inactive)	5.68 µM (inactive)	4.03 µM (inactive)	30 µM (inactive)	4.07 µM (inactive)	23.1 µM (inactive)	2.66 µM (inactive)	> 54 µM (inactive)	64.7 µM (inactive)	1.71 µM (inactive)	10.8 µM (inactive)	> 67.3 µM (inactive)	15 µM (inactive)
Oc1cc(-n2cccn2)c(O)cc1-n1cccn1	22.4 µM (inactive)	23.6 µM (inactive)	7.11 µM (inactive)	> 69.2 µM (inactive)	> 100 µM (inactive)	28.8	21 µM (inactive)	> 100 µM (inactive)	54.6 µM (inactive)	57.7 µM (inactive)	43.7 µM (inactive)	11.5 µM (inactive)	21.6 µM (inactive)	15.2 µM (inactive)	55.7 µM (inactive)	40.8 µM (inactive)	> 69.2 µM (inactive)	19.1 µM (inactive)	32.1 µM (inactive)	38.9 µM (inactive)
O=C(CC(=O)Nc1ccccc1Cl)NNC(Sc1ccccc1)c1cc(/N=N/c2ccc(Br)cc2)ccc1O (stereo not given)	1.36 µM (inactive)	1.46 µM (inactive)	0.409 µM (active)	3.29 µM (inactive)	2.81 µM (inactive)	0.679	2.07 µM (inactive)	3.13 µM (inactive)	2.71 µM (inactive)	1.35 µM (inactive)	1.85 µM (inactive)	4.07 µM (inactive)	0.571 µM (active)	1.23 µM (inactive)	0.74 µM (active)	2.69 µM (inactive)	4.8 µM (inactive)	0.69 µM (active)	2.37 µM (inactive)	1.17 µM (inactive)
O=[N+]([O-])c1ccc2sc(/C=N/c3ccccn3)cc2c1	98.6 µM (inactive)	> 100 µM (inactive)	33.8 µM (inactive)	69 µM (inactive)	> 100 µM (inactive)	51.4	69.8 µM (inactive)	47.6 µM (inactive)	60.4 µM (inactive)	64.6 µM (inactive)	98.2 µM (inactive)	> 100 µM (inactive)	69.5 µM (inactive)	22.6 µM (inactive)	28.5 µM (inactive)	> 100 µM (inactive)	> 100 µM (inactive)	21.7 µM (inactive)	99.8 µM (inactive)	99.1 µM (inactive)
O=C1Nc2cc(Cl)ccc2C(=O)N2CCC[C@@H]12	> 100 µM (inactive)	> 100 µM (inactive)	> 100 µM (inactive)	> 100 µM (inactive)	> 100 µM (inactive)	> 100	> 100 µM (inactive)	33.5 µM (inactive)	> 100 µM (inactive)	> 100 µM (inactive)	> 100 µM (inactive)	24.9 µM (inactive)	> 100 µM (inactive)	> 100 µM (inactive)	> 100 µM (inactive)	> 100 µM (inactive)	> 100 µM (inactive)	> 100 µM (inactive)	> 100 µM (inactive)	> 100 µM (inactive)
Cc1c(-c2cnccn2)ssc1=S [OLTIPRAZ]	44 µM (inactive)	> 100 µM (inactive)	60.3 µM (inactive)	33.2 µM (inactive)	> 100 µM (inactive)	62.8	26.8 µM (inactive)	34.5 µM (inactive)	> 100 µM (inactive)	> 80.9 µM (inactive)	88.5 µM (inactive)	34.8 µM (inactive)	> 100 µM (inactive)	> 100 µM (inactive)	56.2 µM (inactive)	> 100 µM (inactive)	18.5 µM (inactive)	> 100 µM (inactive)	24.5 µM (inactive)	76.2 µM (inactive)
COc1cc(OC)nc(-n2c(N)c(C#N)c3ccc([N+](=O)[O-])cc3c2=O)n1	> 100 µM (inactive)	> 100 µM (inactive)	> 100 µM (inactive)	> 100 µM (inactive)	> 100 µM (inactive)	> 100	> 100 µM (inactive)	> 100 µM (inactive)	79.3 µM (inactive)	> 100 µM (inactive)	> 100 µM (inactive)	18.3 µM (inactive)	> 100 µM (inactive)	> 100 µM (inactive)	> 100 µM (inactive)	> 100 µM (inactive)	> 100 µM (inactive)	> 100 µM (inactive)	> 100 µM (inactive)	> 100 µM (inactive)
O=C(/C=C/NC(=O)OCc1ccccc1)OCc1ccccc1	> 100 µM (inactive)	> 100 µM (inactive)	> 100 µM (inactive)	> 100 µM (inactive)	> 100 µM (inactive)	> 100	41.6 µM (inactive)	> 100 µM (inactive)	> 100 µM (inactive)	> 100 µM (inactive)	> 100 µM (inactive)	> 100 µM (inactive)	> 100 µM (inactive)	> 100 µM (inactive)	> 100 µM (inactive)	> 100 µM (inactive)	32.7 µM (inactive)	> 100 µM (inactive)	> 100 µM (inactive)	> 100 µM (inactive)
CCOC(=O)C1CC(C(=O)c2ccccc2)N2c3ccccc3-c3ccccc3C12 (stereo not given)	> 100 µM (inactive)	> 100 µM (inactive)	28.1 µM (inactive)	> 100 µM (inactive)	> 100 µM (inactive)	> 100	52.8 µM (inactive)	25.9 µM (inactive)	37.2 µM (inactive)	48.6 µM (inactive)	> 100 µM (inactive)	50.9 µM (inactive)	40.6 µM (inactive)	11.9 µM (inactive)	74.6 µM (inactive)	> 100 µM (inactive)	28.1 µM (inactive)	> 100 µM (inactive)	> 100 µM (inactive)	46.7 µM (inactive)
O=C(Cn1c(=O)oc2ccc(C(=O)c3ccccc3Cl)cc21)c1ccc([N+](=O)[O-])cc1	32.7 µM (inactive)	38.5 µM (inactive)	4.29 µM (inactive)	24.2 µM (inactive)	17.9 µM (inactive)	17.7	27.5 µM (inactive)	37.2 µM (inactive)	23.6 µM (inactive)	20.1 µM (inactive)	25.4 µM (inactive)	14.9 µM (inactive)	22.8 µM (inactive)	9.51 µM (inactive)	24.8 µM (inactive)	37.8 µM (inactive)	0.824 µM (active)	26.8 µM (inactive)	31.1 µM (inactive)	12 µM (inactive)
CN(C)CCCc1cccnc1	> 100 µM (inactive)	> 100 µM (inactive)	> 100 µM (inactive)	> 100 µM (inactive)	> 100 µM (inactive)	> 100	> 100 µM (inactive)	> 100 µM (inactive)	> 100 µM (inactive)	> 100 µM (inactive)	> 100 µM (inactive)	> 100 µM (inactive)	> 100 µM (inactive)	> 100 µM (inactive)	> 100 µM (inactive)	> 100 µM (inactive)	41.7 µM (inactive)	> 100 µM (inactive)	> 100 µM (inactive)	> 100 µM (inactive)
COc1ccc(CC2C(=O)NC(C)C(=O)N(C)C3C(=O)N(C)C(Cc4ccc(O)c(c4)Oc4ccc(cc4)C3O)C(=O)NC(C)C(=O)NC(C)C(=O)N2C)cc1 (stereo not given)	0.0891 µM (active)	0.0512 µM (active)	0.0013 µM (active)	0.0261 µM (active)	0.0391 µM (active)	0.658	0.0137 µM (active)	0.01 µM (active)	0.0162 µM (active)	0.00215 µM (active)	0.016 µM (active)	0.0125 µM (active)	0.01 µM (active)	0.014 µM (active)	0.0125 µM (active)	0.00223 µM (active)	0.0137 µM (active)	0.0181 µM (active)	0.0071 µM (active)	0.0138 µM (active)
CCCCCCCCCCCCCCCCCCNc1ccn(C2OC(COP(=O)(O)OCC3OC(n4cc(C)c(=O)[nH]c4=O)CC3F)C(O)C2O)c(=O)n1 (stereo not given)	13 µM (inactive)	8.73 µM (inactive)	4.61 µM (inactive)	10.3 µM (inactive)	5.7 µM (inactive)	6.01	18.4 µM (inactive)	11.1 µM (inactive)	5.78 µM (inactive)	5.22 µM (inactive)	8.65 µM (inactive)	4.29 µM (inactive)	1.61 µM (inactive)	3.52 µM (inactive)	8.59 µM (inactive)	8.87 µM (inactive)	19.8 µM (inactive)	5.86 µM (inactive)	10.4 µM (inactive)	6.24 µM (inactive)
O=C(O)CN1CCNCCN(CC(=O)O)CC1	> 84.5 µM (inactive)	> 100 µM (inactive)	5.47 µM (inactive)	12.5 µM (inactive)	10.6 µM (inactive)	3.79	8.38 µM (inactive)	> 66.1 µM (inactive)	12.6 µM (inactive)	16.8 µM (inactive)	3.25 µM (inactive)	3.28 µM (inactive)	18.1 µM (inactive)	7.23 µM (inactive)	89.1 µM (inactive)	33.8 µM (inactive)	12.3 µM (inactive)	3.4 µM (inactive)	15.2 µM (inactive)	12.6 µM (inactive)
